Target: T1, USP1, construct USP1 (1-785, GG670, 671AA)/UAF1 (1-677)-Flag (Homo sapiens, UniProt O94782, G670A/G671A)
T1 construct: USP1, construct USP1 (1-785, GG670, 671AA)/UAF1 (1-677)-Flag; Viva; purchased Viva
Experiment: Ubiquitin-Rhodamine 110 assay for USP1 activity
Assay type: biochemical
Details: enzyme 25 pM, Ub-Rh110 25 nM, 30 minutes preincubation, 8- or 10-point dilution
Experimental: Example A: Ubitquin-Rhodamine 110 Assay for USP1 Activity
The HTS assay was performed in a final volume of 20 μL in assay buffer containing 20 mM Tris-HCl (pH 8.0, (1M Tris-HCl, pH 8.0 solution; Corning 46-031-CM)), 2 mM CaCl2) (1M Calcium Chloride solution; Sigma #21114) 1 mM GSH (L-Glutathione reduced; Sigma #G4251), 0.01% Prionex ([…] filtered, Sigma #G-0411), and 0.01% Triton X-100. Stock compound solutions were stored at −20° C. as 10 mM in DMSO. Up to 1 month prior to the assay, 2 mM test compounds were pre-dispensed into assay plates (Black, low volume; Corning #3820) and frozen at −20° C. Pre-stamped assay plates were allowed to come to room temperature on the day of the assay. For the screen, 100 nL of 2 mM was pre-dispensed for a final screening concentration of 10 μM (DMSO(fc)=0.5%). The final concentration of the enzyme (USP1, construct USP1 (1-785, GG670, 671AA)/UAF1 (1-677)-Flag; Viva) in the assay was 100 pM. Final substrate (Ub-Rh110; Ubiquitin-Rhodamine 110, R&D Systems #U-555) concentration was 25 nM with [Ub-Rh110]<<Km. 10 μL of 2× enzyme was added to assay plates (pre-stamped with compound) either simultaneously with 2×Ub-Rh110 or preincubated with USP1 40 minutes prior to the addition of 10 μL of 2×Ub-Rh110 to compound plates. Plates were incubated stacked for 45 minutes at room temperature before fluorescence was read on the Envision (Excitation at 485 nm and Emission at 535 nm; Perkin Elmer) or on the PheraSTAR (Excitation at 485 nm and Emission at 535 nm; BMG Labtech).
Nanoliter quantities of either an 8-point or 10-point, 3-fold serial dilution in DMSO were pre-dispensed into assay plates (Perkin Elmer, ProxiPlate-384 F Plus, #6008269) for a final test concentration range of either 25 μM to 11 nM or 25 μM to 1.3 nM, respectively. The final concentration of the enzyme (USP1, construct USP1 (1-785, GG670, 671AA)/UAF1 (1-677)-Flag; Viva) in the assay was 25 pM. Final substrate (Ub-Rh110; Ubiquitin-Rhodamine 110, R&D Systems #U-555) concentration was 25 nM with [Ub-Rh110]<<Km. 5 μL of 2× enzyme was added to assay plates (pre-stamped with compound) preincubated with USP1 for 30 minutes and then 5 μL of 2×Ub-Rh110 was added to assay plates. Plates were incubated stacked for 20 minutes at room temperature before 5 μL of stop solution (final concentration of 10 mM citric acid in assay buffer (Sigma, #251275-500G)). Fluorescence was read on the Envision (Excitation at 485 nm and Emission at 535 nm; Perkin Elmer) or on the PheraSTAR (Excitation at 485 nm and Emission at 535 nm; BMG Labtech).
For both assay formats data were reported as percent inhibition compared with control wells based on the following equation: % inh=[1−((FLU−AveLow)/(AveHigh−AveLow))]×100 where FLU=measured Fluorescence, AveLow=average Fluorescence of no enzyme control (n=16), and AveHigh=average Fluorescence of DMSO control (n=16). IC50 values were determined by curve fitting of the standard 4 parameter logistic fitting algorithm included in the Activity Base software package: IDBS XE Designer Model205. Data is fitted using the Levenburg Marquardt algorithm.

T1 sequence (O94782 whole entry G670A/G671A): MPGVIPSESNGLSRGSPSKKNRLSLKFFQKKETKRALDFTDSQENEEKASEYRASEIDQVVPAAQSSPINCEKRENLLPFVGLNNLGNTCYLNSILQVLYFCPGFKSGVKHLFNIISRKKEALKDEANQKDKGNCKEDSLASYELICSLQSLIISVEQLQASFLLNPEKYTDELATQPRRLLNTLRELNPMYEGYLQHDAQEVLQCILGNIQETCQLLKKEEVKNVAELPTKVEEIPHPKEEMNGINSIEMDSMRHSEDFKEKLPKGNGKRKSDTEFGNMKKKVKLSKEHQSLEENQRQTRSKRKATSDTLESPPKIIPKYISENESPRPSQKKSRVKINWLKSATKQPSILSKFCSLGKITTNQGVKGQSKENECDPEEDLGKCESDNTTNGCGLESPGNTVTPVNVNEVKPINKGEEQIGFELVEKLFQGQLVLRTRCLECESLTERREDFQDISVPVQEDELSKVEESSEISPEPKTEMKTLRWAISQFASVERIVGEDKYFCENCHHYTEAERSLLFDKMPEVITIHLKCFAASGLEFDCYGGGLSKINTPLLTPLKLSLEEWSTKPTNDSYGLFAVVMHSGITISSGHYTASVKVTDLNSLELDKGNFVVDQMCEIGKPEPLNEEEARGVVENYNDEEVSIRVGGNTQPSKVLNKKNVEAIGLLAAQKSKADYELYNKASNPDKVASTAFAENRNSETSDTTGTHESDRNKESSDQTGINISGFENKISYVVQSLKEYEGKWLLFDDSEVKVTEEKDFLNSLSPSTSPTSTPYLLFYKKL
T1 sequence (Q8TAF3 whole entry partner): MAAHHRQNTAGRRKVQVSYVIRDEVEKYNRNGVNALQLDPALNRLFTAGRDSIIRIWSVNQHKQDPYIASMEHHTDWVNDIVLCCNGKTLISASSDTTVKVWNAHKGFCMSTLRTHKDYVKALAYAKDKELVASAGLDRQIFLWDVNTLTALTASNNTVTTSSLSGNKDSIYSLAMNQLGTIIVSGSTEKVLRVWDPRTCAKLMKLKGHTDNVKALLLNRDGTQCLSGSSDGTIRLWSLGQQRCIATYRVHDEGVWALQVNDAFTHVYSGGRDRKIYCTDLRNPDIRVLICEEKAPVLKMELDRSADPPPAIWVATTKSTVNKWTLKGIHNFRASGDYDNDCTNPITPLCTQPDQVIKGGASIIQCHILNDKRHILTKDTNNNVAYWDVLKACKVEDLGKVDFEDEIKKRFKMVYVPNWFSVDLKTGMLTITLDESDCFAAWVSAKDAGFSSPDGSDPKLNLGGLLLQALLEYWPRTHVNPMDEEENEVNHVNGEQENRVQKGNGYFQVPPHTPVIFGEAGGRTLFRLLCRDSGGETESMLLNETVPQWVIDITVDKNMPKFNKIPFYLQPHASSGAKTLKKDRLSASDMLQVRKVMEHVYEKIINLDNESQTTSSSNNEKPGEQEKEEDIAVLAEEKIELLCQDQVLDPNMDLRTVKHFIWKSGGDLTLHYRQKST

Q: How did the IC50 turn out when CC(C)c1ccccc1-c1ncc2sc(=O)n(Cc3ccc(-c4nc(C(F)(F)F)cn4C)cc3)c2n1 [Example I-1, 5-(2-isopropylphenyl)-3-(4-(1-methyl-4-(trifluoromethyl)-1H-imidazol-2-yl)benzyl)thiazolo[4,5-d]pyrimidin-2(3H)-one] was run?
A: The IC50 was no more than 0.01 µM.

Q: With CC(C)c1ncccc1-c1ncc2c(n1)N(Cc1ccc(-c3nc(C(F)(F)F)cn3C)cc1)CCO2 [Example I-2, 3-[8-([4-[1-methyl-4-(trifluoromethyl)-1H-imidazol-2-yl]phenyl]methyl)-6H,7H,8H-pyrimido[5,4-b][1,4]oxazin-2-yl]-2-(propan-2-yl)pyridine] as the compound, how does the IC50 read?
A: Its IC50 is no more than 0.01 µM.

Q: For CC(C)c1ncccc1-c1ncc2c(n1)N(Cc1ccc(-c3nc(C(F)(F)F)cn3C)cc1)C(=O)CO2 [Example I-4, 8-([4-[1-methyl-4-(trifluoromethyl)-1H-imidazol-2-yl]phenyl]methyl)-2-[2-(propan-2-yl)pyridin-3-yl]-6H,7H,8H-pyrimido[5,4-b][1,4]oxazin-7-one], which IC50 is on record?
A: Its IC50 is 0.01 to 0.1 µM.

Q: Which IC50 does the source give for CC(C)c1ncccc1-c1ncc2c(n1)N(Cc1ccc(-c3nc(C(F)(F)F)cn3C)cc1)C(=O)C(C)(C)O2 [Example I-5, 6,6-dimethyl-8-([4-[1-methyl-4-(trifluoromethyl)-1H-imidazol-2-yl]phenyl]methyl)-2-[2-(propan-2-yl)pyridin-3-yl]-6H,7H,8H-pyrimido[5,4-b][1,4]oxazin-7-one] here?
A: Its IC50 is 0.01 to 0.1 µM.

Q: Which IC50 does the source give for CC(C)c1ccccc1-c1ncc2c(n1)N(Cc1ccc(-c3nc(C(F)(F)F)cn3C)cc1)C(=O)N(C)C2 [Example I-6, 3-methyl-1-([4-[1-methyl-4-(trifluoromethyl)-1H-imidazol-2-yl]phenyl]methyl)-7-[2-(propan-2-yl)phenyl]-1H,2H,3H,4H-[1,3]diazino[4,5-d]pyrimidin-2-one] here?
A: The IC50 was 0.01 to 0.1 µM.

Q: With CC(C)c1ccccc1-c1ncc2c(n1)N(Cc1ccc(-c3nc(C(F)(F)F)cn3C)cc1)C(=O)OC2 [Example I-7, 1-([4-[1-methyl-4-(trifluoromethyl)-1H-imidazol-2-yl]phenyl]methyl)-7-[2-(propan-2-yl)phenyl]-1H,2H, 4H-pyrimido[4,5-d][1,3]oxazin-2-one] as the compound, how does the IC50 read?
A: Its IC50 is no more than 0.01 µM.

Q: With CC(C)c1ncccc1-c1ncc2c(n1)N(Cc1ccc(-c3nc(C(F)(F)F)cn3C)cc1)C(=O)OC2 [Example I-8, 1-([4-[1-methyl-4-(trifluoromethyl)-1H-imidazol-2-yl]phenyl]methyl)-7-[2-(propan-2-yl)pyridin-3-yl]-1H,2H, 4H-pyrimido[4,5-d][1,3]oxazin-2-one] as the compound, how does the IC50 read?
A: The IC50 was 0.01 to 0.1 µM.

Q: Which IC50 does the source give for CC(C)c1ncccc1-c1ncc2ccn(Cc3ccc(-c4nc(C(F)(F)F)cn4C)cc3)c2n1 [Example I-9, 3-[7-([4-[1-methyl-4-(trifluoromethyl)-1H-imidazol-2-yl]phenyl]methyl)-7H-pyrrolo[2,3-d]pyrimidin-2-yl]-2-(propan-2-yl)pyridine] here?
A: Its IC50 is no more than 0.01 µM.

Q: Which IC50 does the source give for CC(C)c1ncccc1-c1ncc2cnn(Cc3ccc(-c4nc(C(F)(F)F)cn4C)cc3)c2n1 [Example I-10, 3-[1-([4-[1-methyl-4-(trifluoromethyl)-1H-imidazol-2-yl]phenyl]methyl)-1H-pyrazolo[3,4-d]pyrimidin-6-yl]-2-(propan-2-yl)pyridine] here?
A: The IC50 was 0.01 to 0.1 µM.

Q: For CC(C)c1ncccc1-c1ncc2c(n1)N(Cc1ccc(-c3nc(C(F)(F)F)cn3C)cc1)C(=O)C21CC1 [Example I-11, 3′-([4-[1-methyl-4-(trifluoromethyl)-1H-imidazol-2-yl]phenyl]methyl)-5′-[2-(propan-2-yl)pyridin-3-yl]-2′,3′-dihydrospiro[cyclopropane-1,1′-pyrrolo[2,3-d]pyrimidine]-2′-one], which IC50 is on record?
A: Its IC50 is 0.01 to 0.1 µM.

Q: Which IC50 does the source give for CC(C)c1ccccc1-c1ncc2oc(=O)n(Cc3ccc(-c4nc(C(F)(F)F)cn4C)cc3)c2n1 [Example I-12, 5-(2-isopropylphenyl)-3-(4-(1-methyl-4-(trifluoromethyl)-1H-imidazol-2-yl)benzyl)oxazolo[4,5-d]pyrimidin-2(3H)-one] here?
A: Its IC50 is no more than 0.01 µM.

Q: For CC(C)c1ncccc1-c1ncc2oc(=O)n(Cc3ccc(-c4nc(C(F)(F)F)cn4C)cc3)c2n1 [Example I-13], which IC50 is on record?
A: Its IC50 is 0.1 to 1 µM.

Q: How did the IC50 turn out when CC(C)c1ccccc1-c1ncc2nc(C3CNC3)n(Cc3ccc(-n4cccn4)cc3)c2n1 [Example I-14, 8-(azetidin-3-yl)-2-[2-(propan-2-yl)phenyl]-9-[[4-(1H-pyrazol-1-yl)phenyl]methyl]-9H-purine] was run?
A: The IC50 was 0.1 to 1 µM.

Q: CC(C)c1ccccc1-c1ncc2nc(C3COC3)n(Cc3ccc(-n4cccn4)cc3)c2n1 [Example I-15, 8-(oxetan-3-yl)-2-[2-(propan-2-yl)phenyl]-9-[[4-(1H-pyrazol-1-yl)phenyl]methyl]-9H-purine] was tested. Which IC50 did it give?
A: The IC50 was 0.1 to 1 µM.

Q: With CC(C)c1ncccc1-c1ncc2c(n1)N(Cc1ccc(-c3nc(C(F)(F)F)cn3C)cc1)C(=O)C2 [Example I-16, 7-([4-[1-methyl-4-(trifluoromethyl)-1H-imidazol-2-yl]phenyl]methyl)-2-[2-(propan-2-yl)pyridin-3-yl]-5H,6H,7H-pyrrolo[2,3-d]pyrimidin-6-one] as the compound, how does the IC50 read?
A: The IC50 was 0.01 to 0.1 µM.

Q: With COc1nc2cnc(-c3cccnc3C(C)C)nc2n1Cc1ccc(-c2nc(C(F)(F)F)cn2C)cc1 [Example I-17, 8-methoxy-9-([4-[1-methyl-4-(trifluoromethyl)-1H-imidazol-2-yl]phenyl]methyl)-2-[2-(propan-2-yl)pyridin-3-yl]-9H-purine] as the compound, how does the IC50 read?
A: Its IC50 is 0.1 to 1 µM.

Q: For CC(C)c1ccccc1-c1ncc2c(n1)N(Cc1ccc(-c3nc(C(F)(F)F)cn3C)cc1)C(=O)C2 [Example I-18, 7-([4-[1-methyl-4-(trifluoromethyl)-1H-imidazol-2-yl]phenyl]methyl)-2-[2-(propan-2-yl)phenyl]-5H,6H,7H-pyrrolo[2,3-d]pyrimidin-6-one], which IC50 is on record?
A: Its IC50 is no more than 0.01 µM.

Q: With CC(C)c1ncccc1-c1ncc2c(n1)N(Cc1ccc(-c3nc(C(F)(F)F)cn3C3COC3)cc1)C(=O)C2 [Example I-19, 7-([4-[1-(oxetan-3-yl)-4-(trifluoromethyl)-1H-imidazol-2-yl]phenyl]methyl)-2-[2-(propan-2-yl)pyridin-3-yl]-5H,6H,7H-pyrrolo[2,3-d]pyrimidin-6-one] as the compound, how does the IC50 read?
A: The IC50 was 0.1 to 1 µM.

Q: For CC(C)c1ncccc1-c1ncc2c(n1)N(Cc1ccc(-c3nc(C(F)(F)F)cn3C)cc1)C(=O)CC2 [Example I-20, 8-([4-[1-methyl-4-(trifluoromethyl)-1H-imidazol-2-yl]phenyl]methyl)-2-[2-(propan-2-yl)pyridin-3-yl]-5H,6H,7H,8H-pyrido[2,3-d]pyrimidin-7-one], which IC50 is on record?
A: Its IC50 is 0.01 to 0.1 µM.

Q: Which IC50 does the source give for COc1ncnc(C2CC2)c1-c1ncc2sc(=O)n(Cc3ccc(-n4nc(C(F)(F)F)cc4C)cc3)c2n1 [Example I-21, 5-(4-cyclopropyl-6-methoxypyrimidin-5-yl)-3-(4-(5-methyl-3-(trifluoromethyl)-1H-pyrazol-1-yl)benzyl)thiazolo[4,5-d]pyrimidin-2(3H)-one] here?
A: The IC50 was no more than 0.01 µM.

Q: Which IC50 does the source give for COc1ncnc(C2CC2)c1-c1ncc2sc(=O)n(Cc3ccc(-c4nc(C(F)(F)F)cn4C)cc3)c2n1 [Example I-22, 5-(4-cyclopropyl-6-methoxypyrimidin-5-yl)-3-(4-(1-methyl-4-(trifluoromethyl)-1H-imidazol-2-yl)benzyl)thiazolo[4,5-d]pyrimidin-2(3H)-one] here?
A: Its IC50 is no more than 0.01 µM.

Reference: US20240239808A1 (Forma Therapeutics, Inc., priority 2021, published 2024)
